# Data reported in ChEMBL document CHEMBL4725224, “A novel Golgi mannosidase inhibitor: Molecular design, synthesis, enzyme inhibition, and inhibition of spheroid formation” (Bioorg Med Chem, 2020).
# Calls of active or inactive are those of the source. The rule behind the calls is not given here.
# Key:
# Assay type in all cases: cell-based
# [1] = test system: OVCAR-3; assay: Inhibition of Golgi mannosidase in human OVCAR-3 cells assessed as inhibition of spheroid formation by measuring size at 10 uM upto 7 days by light microscopy analysis relative to control; details: time day <=7
# [2] = test system: HeLa; assay: Inhibition of Golgi mannosidase in human HeLa cells assessed as intracellular high mannose type N-glycans accumulation by measuring increase in fluorescence intensity using ConA-AF488 at 10 uM by confocal laser scanning microscopy analysis
# [3] = test system: HeLa; assay: Inhibition of Golgi mannosidase in human HeLa cells assessed as high mannose type N-glycans accumulation by measuring reduction in cell length using ConA-AF488 at 10 uM by fluorescence microscopy analysis (reference value: 100%); details: time day <=7
# [4] = test system: HeLa; assay: Inhibition of Golgi mannosidase in human HeLa cells assessed as high mannose type N-glycans accumulation by measuring increase in fluorescence intensity using ConA-AF488 at 10 uM by fluorescence microscopy analysis (reference value: 100%); details: values are per cent of control
# [5] = test system: HeLa; assay: Inhibition of Golgi mannosidase in human HeLa cells assessed as high mannose type N-glycans accumulation by measuring increase in fluorescence area using ConA-AF488 at 10 uM by fluorescence microscopy analysis (reference value: 100%); details: values are per cent of control
Structure (SMILES),inhibition [1],inhibition [2],inhibition [3] [%],"response, % of control [4] [%]","response, % of control [5] [%]"
O=C1N[C@@H]2[C@@H](O)[C@@H](O)[C@H](O)[C@@H](CO)N2C1=O,inactive,Active,13,,
c1ccc(C(CCNCc2ccc3c(c2)OCO3)c2ccccc2)cc1,,,28,114,113
CN(C)c1ccc(CNCCC(c2ccccc2)c2ccc3c(c2)OCO3)cc1 (centres undefined),,,23,114,114
c1ccc(CNCCC(c2ccccc2)c2ccc3c(c2)OCO3)cc1 (centres undefined),,,21,,
c1ccc(C(CCNCc2ccc3c(c2)OCO3)c2ccc3c(c2)OCO3)cc1 (centres undefined),,,31,104,113
Clc1ccc(CNCCC(c2ccccc2)c2ccccc2)cc1,,,29,134,127
COc1ccc(C(CCNCc2ccc(Cl)cc2)c2ccc3c(c2)OCO3)cc1 (centres undefined),,,27,,150
COc1ccc(C(CCNCc2ccc3c(c2)OCO3)c2ccc3c(c2)OCO3)cc1 (centres undefined),,,26,110,108
COc1ccc(C(CCNCc2ccc(N(C)C)cc2)c2ccc3c(c2)OCO3)cc1 (centres undefined),Active,Active,28,,148
CN(C)c1ccc(CNCCC(c2ccccc2)c2ccccc2)cc1,,,32,,
Clc1ccc(CNCCC(c2ccccc2)c2ccc3c(c2)OCO3)cc1 (centres undefined),,,18,111,115
